How the values were obtained:
Format in all cases: cell-based
[1] = tested on: G protein pathway; test: Luciferase complementation assay; conditions: ACh 0.1 nM to 100 μM
[2] = tested on: β-arrestin pathway; test: Tango assay; conditions: ACh 0.01 nM to 100 μM
[3] = tested on: gACh3.0; test: Fluorescence imaging; conditions: read-out: EC50 (μM), normalized dose-response curves, HEK293T; n = 3
[4] = tested on: iAChSnFR; test: Fluorescence imaging; conditions: read-out: EC50 (μM), normalized dose-response curves, HEK293T; n = 3

wild-type human M3R: wild-type human type 3 muscarinic ACh receptor, positive control for downstream coupling
coupling to G protein pathway [1]: robust coupling | coupling to β-arrestin pathway [2]: robust coupling

CC(=O)OCC[N+](C)(C)C [ACh, acetylcholine]
EC50 [3]: 2.2 µM | EC50 [4]: 8.8 µM

From publication PMC11703214 (bioRxiv, 2024)
